In patent US20140249218A1, “ADMINISTRATION OF INGENOL MEBUTATE” (LEO Laboratories Limited, priority 2013, published 2014):

Columns and labels:
[1] = Skin permeation of [3H]-PEP005, Sprague Dawley rat split-thickness skin; type: in vitro ADME, Sprague Dawley (SD) rat
Procedure: (§1) The rate and extent of absorption of [^3H]-ingenol mebutate over a 24 h exposure period following topical application of the gel to Wistar (WI) rat, Sprague Dawley (SD) rat, Göttingen mini-pig and human split-thickness skin was also assessed.

[2] = Skin permeation of [3H]-PEP005, Wistar rat split-thickness skin; type: in vitro ADME, Wistar (WI) rat
Procedure: as §1

[3] = Skin permeation of [3H]-PEP005, human split-thickness skin; type: in vitro ADME; conditions: gel ca 0.05% w/w
Procedure: as §1

[4] = Skin permeation of [3H]-PEP005, mini-pig split-thickness skin; type: in vitro ADME, Göttingen mini-pig
Procedure: as §1
The maximum hourly flux was 0.44, 0.80, 2.09, and 6.12 ng equiv./cm^2/h for human, mini-pig, SD and WI rat skin, respectively. […] The flux profile for mini-pig was dissimilar to the other species/strains. […] The other three species/strains had similar flux profiles with lag times of ca 1, 2 and 3 h for the human, SD and WI rat skin, respectively. This was followed by steady state flux from 4-24 h, 6-24 h and 8-24 h, respectively. Steady state flux was 0.39, 2.01 and 5.87 ng equiv./cm^2/h for the human, SD and WI rat skin, respectively. […] These differences with the mini-pig group compared to the other three skin groups may have been attributed to the preparation of the split-thickness skin. Due to the hair follicle depth in mini-pig skin, split-thickness skin was prepared at a depth of ca […] compared to ca […] for the other skin groups. Therefore, the thicker layer of dermis for the mini-pig skin may have acted as a reservoir for [3H]-PEP005 prior to partitioning into the receptor fluid.

[5] = type: physicochemical; conditions: room temperature
Procedure: For the experiment, a slurry mixture of forms A, X and Y in cyclohexane was stirred for about 48 hours at room temperature. After about 24 hours, the complete sample was transformed into form A (see FIG. 17).
A polymorphic crystalline form of the compound of Formula 1 was characterized and identified as form A″ The stability of form A at room temperature was confirmed by the slurry experiments at room temperature.

[6] = Stress milling (mortar and pestle); type: physicochemical; conditions: manual grinding about 2, 5 and 10 mins
Procedure: Crystalline ingenol mebutate is subjected to stress milling to investigate its physico-chemical stability. In the study, crystalline ingenol mebutate is manually ground using a mortar and pestle for durations of about 2, about 5 and about 10 mins.
Crystalline ingenol mebutate was subjected to stress milling (manually using a mortar and pestle) for durations of about 2, about 5 and about 10 mins.

[7] = Conversion of solvate forms upon heating; type: physicochemical
tumor cells = experiment: Direct cytotoxic effect at high concentrations; type: cell-based; conditions: e.g., 100 μg/mL
From the text: (§2) Ingenol mebutate is a pleiotropic effector that exerts a direct cytotoxic effect on tumor cells and modulates Protein Kinase C (PKC) isoforms.

rabbits = experiment: Teratogenicity study, intravenous route, rabbits; type: in vivo, rabbit; conditions: rabbits
Procedure: (§3) Teratogenicity studies with ingenol mebutate were performed by the intravenous route in rats and rabbits.
(§4) In rats, ingenol mebutate was not associated with fetal developmental effects at doses up to 5 μg/kg/day (30 μg/m^2/day).
(§5) The fetal NOAEL was 1 μg/kg/day (12 μg/m^2/day).

[8] = Teratogenicity study, intravenous route, rabbits; type: in vivo, rabbit; conditions: female, rabbit, in vivo, 12 μg/m^2/day, read-out: fetal NOAEL
Procedure: as §3, §4, §5

[9] = tested on: isolated human keratinocytes; experiment: Exposure of isolated keratinocytes in vitro; type: cell-based; conditions: subclinical concentrations
mouse skin = experiment: Application to mouse skin in vivo, inflammatory mediators; conditions: subclinical concentrations
human endothelial cells = experiment: PKC dependent activation of endothelial cells, neutrophil adhesion in vitro; type: cell-based; conditions: e.g., 10 to 100 ng/mL
From the text: as §2

[10] = tested on: squamous cell carcinoma and melanoma tumor; experiment: Mouse xenograft squamous cell carcinoma and melanoma tumor models, topical; type: in vivo
skin = experiment: UV irradiation studies (photoirritation, photoallergy); type: in vivo; conditions: ingenol mebutate 0.01%, single and multiple applications
From the text: Studies have been conducted to assess the effects of UV irradiation on the skin following single and multiple applications of ingenol mebutate, 0.01%. […] However, excessive exposure to sunlight (including sunlamps and tanning beds) should be avoided or minimized during use of TRADEMARK Gel due to the nature of the disease.

rats = experiment: Teratogenicity study, intravenous route, rats; type: in vivo, rat; conditions: 5 μg/kg/day = 30 μg/m^2/day
Procedure: as §3, §4

receptors and enzymes = experiment: Off-target activity in various in vitro assays
[11] = tested on: Syrian hamster embryo (SHE) cell; experiment: Syrian hamster embryo (SHE) cell transformation assay; type: cell-based
Procedure: (§6) Carcinogenic evaluations of ingenol mebutate have not been conducted. Ingenol mebutate was not mutagenic in an in vitro Ames test, mouse lymphoma assay, and in vivo rat micronucleus test. Ingenol mebutate was positive in the Syrian hamster embryo (SHE) cell transformation assay at concentrations≧0.1 μg/mL.

In vitro Ames test = type: cell-based
Procedure: as §6

skin cancer cells = conditions: via rapid mitochondrial disruption and primary necrosis; normal cells less sensitive; cited from earlier work
mouse lymphoma = experiment: Mouse lymphoma assay; type: cell-based
Procedure: as §6

[12] = tested on: human cytochrome P450 isoforms; experiment: In vitro cytochrome P450 inhibition/induction; type: in vitro ADME
tumors = experiment: Mouse xenograft models, intratumoral injection; type: in vivo
rat = experiment: In vivo rat micronucleus test
Procedure: as §6

[13] = SD rat skin vs human skin, % applied dose
[14] = Sprague Dawley Rat skin, gel ca 0.05% w/w
[15] = WI rat skin vs human skin, % applied dose
[16] = Wistar Rat skin, gel ca 0.05% w/w
[17] = Mini-Pig skin, gel ca 0.05% w/w, NO = not observed
[18] = mini-pig skin vs human skin, % applied dose
[19] = mini-pig skin, gel ca 0.05% w/w

With `C/C=C(/C)C(=O)O[C@H]1C(C)=C[C@]23C(=O)[C@@H](C=C(CO)[C@@H](O)[C@]12O)[C@H]1C(C[C@H]3C)C1(C)C` (stereo in doubt) [[^3H]-ingenol mebutate] the “steady state flux compared to human skin, fold greater” value ([1]; SD rat skin vs human skin) was ~5.2 fold, the “dermal delivery compared to human skin, fold greater” value (“dermal delivery … fold greater” below) [1, 13] was ~5.1 fold and the “total absorption compared to human skin, fold greater” value [1, 13] was ~4.9 fold. For the same molecule, the maximum hourly flux ([1]; SD rat skin, gel ca 0.05% w/w) was 2.09 ng equiv./cm^2/h, the “Lag Time” value [1, 14] was ~2 h and the “Period of Steady State Flux” value [1, 14] was 6 to 24 h. The “Steady State Flux” value [1, 14] was 2.01 ng equiv./cm^2/h, the “Unabsorbed Dose” value ([1]; Sprague Dawley Rat skin, gel ca 0.05% w/w, 24 h exposure) was 94.40 % Applied Dose and the “steady state flux compared to human skin, fold greater” value ([2]; WI rat skin vs human skin) was ~15.1 fold. For the same molecule, the “dermal delivery … fold greater” value [2, 15] was ~9.2 fold, the “total absorption compared to human skin, fold greater” value [2, 15] was ~13.8 fold and the maximum hourly flux ([2]; WI rat skin, gel ca 0.05% w/w) was 6.12 ng equiv./cm^2/h. For the same molecule, the “time post dose at which maximum flux was achieved” value (from here on “time post dose”) ([2]; WI rat skin, gel ca 0.05% w/w) was 16 h, the “Lag Time” value [2, 16] was ~3 h and the “Period of Steady State Flux” value [2, 16] was 8 to 24 h. For the same molecule, the “Steady State Flux” value [2, 16] was 5.87 ng equiv./cm^2/h, the “Unabsorbed Dose” value ([2]; Wistar Rat skin, gel ca 0.05% w/w, 24 h exposure) was 90.31 % Applied Dose and the “Lag Time” value [3] was ~1 h. For the same molecule, the “Period of Steady State Flux” value [3] was 4 to 24 h, the “Steady State Flux” value [3] was 0.39 ng equiv./cm^2/h and the maximum hourly flux [3] was 0.44 ng equiv./cm^2/h. The “time post dose” value [3] was 16 h, the “Unabsorbed Dose” value ([3]; 24 h exposure) was 101.09 % Applied Dose and the “Unabsorbed Dose” value ([4]; Mini-Pig skin, gel ca 0.05% w/w, 24 h exposure) was 93.35 % Applied Dose. The “Lag Time” value [4, 17] was “no apparent lag time”, the “Steady State Flux” value [4, 17] was “no apparent lag time or steady state flux observed” and the “dermal delivery … fold greater” value [4, 18] was ~7.9 fold. For the same molecule, the “total absorption compared to human skin, fold less” value [4, 18] was ~1.4 fold, the maximum hourly flux [4, 19] was 0.80 ng equiv./cm^2/h and the “time post dose” value [4, 19] was 1 h.

In the case of `C/C=C(/C)C(=O)O[C@H]1C(C)=C[C@]23C(=O)[C@@H](C=C(CO)[C@@H](O)[C@]12O)[C@H]1[C@@H](C[C@H]3C)C1(C)C` [form A, ingenol mebutate], the “relative stability of forms A, X and Y” value [5] is reported as “most stable form at room temperature” and the “physico-chemical stability on milling” value [6] is reported as “remained unaltered”.

With `C/C=C(/C)C(=O)O[C@H]1C(C)=C[C@]23C(=O)[C@@H](C=C(CO)[C@@H](O)[C@]12O)[C@H]1[C@@H](C[C@H]3C)C1(C)C` [form X, ingenol mebutate] the behaviour upon heating [7] was “converted into form A upon heating” and the “time to conversion to form A in slurry” value ([5]; slurry of forms A, X and Y in c-hexane) was “about 24 hours”.

In the case of `C/C=C(/C)C(=O)O[C@H]1C(C)=C[C@]23C(=O)[C@@H](C=C(CO)[C@@H](O)[C@]12O)[C@H]1[C@@H](C[C@H]3C)C1(C)C` [ingenol mebutate, (1 aR,2S,5R,5aS,6S,8aS,9R,10aR)-5,5a-dihydroxy-4-(hydroxymethyl)-1,1,7,9-tetramethyl-11-oxo-1a,2,5,5a,6,9,10,10a-octahydro-1H2,8a-methanocyclopenta[a]cyclopropa[e]cyclodecen-6-yl(2Z)-2-methylbut-2-enoate], the “effect on cells at high concentrations” value (tumor cells) is reported as “induces mitochondrial swelling and loss of cell membrane integrity leading to cell death”, the “doses at which maternal toxicity (increased breathing) was observed” value (rabbits; 1 μg/kg/day = 12 μg/m^2/day) is reported as ≥ 1 µg/kg/day and the “doses with slight increase in incidence of incompletely ossified cervical vertebral arches” value (rabbits; 2 μg/kg/day = 24 μg/m^2/day) is reported as ≥ 2 µg/kg/day. For the same molecule, the embryo-fetal findings (rabbits; 4 μg/kg/day (48 μg/m^2/day), marginal, not statistically significant) was “slight increase in embryonic deaths, an increase in jugular fusion to the maxilla and a variation in the origin of arteries arising from the aortic arch”, the NOAEL [8] was 0.001 mg/kg/day and the effect on keratinocytes [9] was “cytokine release and specific PKC-mediated neutrophil activation”. For the same molecule, the “release of inflammatory mediators in mouse skin” value (mouse skin) was “induced the release of inflammatory mediators IL-8/MIP-2 and TNF-α resulting in neutrophil recruitment and activation”, the “Lag Time” value [1, 14] was 2 h and the “Period of Steady State Flux” value [1, 14] was 6.24 h. For the same molecule, the “Steady State Flux” value [1, 14] was 2.01 ng equiv./cm^2/h, the “effect on endothelial cells at subclinical concentrations” value (human endothelial cells) was “stimulates PKC dependent activation of human endothelial cells to support neutrophil adhesion” and the effect on tumors [10] was “removes tumors and prevents tumor recurrence”. The “Lag Time” value [2, 16] was 3 h, the “Period of Steady State Flux” value [2, 16] was 8.24 h and the “Steady State Flux” value [2, 16] was 5.87 ng equiv./cm^2/h. The “photoirritation or photoallergy effects” value (skin) was “did not demonstrate any potential for photoirritation or photoallergy effects”, the “doses not associated with fetal developmental effects” value (rats) was “up to 5 μg/kg/day” and the off-target activity (receptors and enzymes) was “did not inhibit or stimulate receptors and enzymes”. The “Lag Time” value [3] was 1 h, the “Period of Steady State Flux” value [3] was 4.24 h and the “Steady State Flux” value [3] was 0.39 ng equiv./cm^2/h. For the same molecule, the “concentrations positive in SHE cell transformation assay” value ([11]; Syrian hamster, Syrian hamster embryo (SHE) cells) was ≥ 100 ng/mL, the cell transformation result ([11]; concentrations≧0.1 μg/mL) was “positive” and the mutagenicity (In vitro Ames test) was “not mutagenic”. The “toxicity for skin cancer cells” value (skin cancer cells) was “highly toxic”, the mutagenicity (mouse lymphoma) was “not mutagenic” and the “inhibition or induction of cytochrome P450 isoforms” value [12] was “does not inhibit or induce human cytochrome P450 isoforms”. For the same molecule, the “immune response after intratumoral injection” value (tumors) was “stimulated a tumor-specific CD8+T cell response with anti-tumor activity against distant secondary tumors” and the mutagenicity (rat) was “not mutagenic”.
